Measured values: patent US9650339B2, “Inhibitors of histone demethylases” (Gilead Sciences, Inc., priority 2013, dated 2017)

Legend:
[1] = target: T1, KDM5B (PLU-1) (Homo sapiens, UniProt Q9UGL1); assay: Histone lysine demethylase AlphaLISA assay, KDM5B; assay type: biochemical; details: read-out: KDM5B HDME Inhibition IC50
T1 sequence (Q9UGL1 1-809): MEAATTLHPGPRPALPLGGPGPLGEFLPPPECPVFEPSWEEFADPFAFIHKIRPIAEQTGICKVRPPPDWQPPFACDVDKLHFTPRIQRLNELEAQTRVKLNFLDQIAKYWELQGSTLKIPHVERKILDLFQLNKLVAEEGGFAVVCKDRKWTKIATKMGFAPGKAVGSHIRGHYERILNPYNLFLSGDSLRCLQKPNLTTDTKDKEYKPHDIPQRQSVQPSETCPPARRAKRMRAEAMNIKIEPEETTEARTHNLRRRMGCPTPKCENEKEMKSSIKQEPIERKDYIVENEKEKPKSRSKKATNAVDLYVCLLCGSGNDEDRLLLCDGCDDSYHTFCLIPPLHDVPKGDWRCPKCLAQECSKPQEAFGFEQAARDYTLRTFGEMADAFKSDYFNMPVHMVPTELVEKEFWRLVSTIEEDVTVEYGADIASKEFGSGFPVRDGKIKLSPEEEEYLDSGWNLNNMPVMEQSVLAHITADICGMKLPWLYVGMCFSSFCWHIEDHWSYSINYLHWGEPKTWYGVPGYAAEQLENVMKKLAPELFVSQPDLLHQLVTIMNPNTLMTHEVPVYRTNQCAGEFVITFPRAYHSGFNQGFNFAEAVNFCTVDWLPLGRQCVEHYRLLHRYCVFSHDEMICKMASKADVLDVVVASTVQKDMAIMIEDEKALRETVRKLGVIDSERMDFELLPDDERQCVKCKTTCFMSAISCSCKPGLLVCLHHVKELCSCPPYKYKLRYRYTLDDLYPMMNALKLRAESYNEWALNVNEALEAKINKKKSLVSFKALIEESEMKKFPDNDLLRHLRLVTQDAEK
Method in brief: (§1)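 Steps: enzyme equilibrated 10 min in buffer; compounds in 3% DMSO solution added, 10 min; substrate mix added (peptide, 25 μM L-Asc, 10 μM α-KG), room temperature; acceptor beads, then streptavidin donor beads, dark incubations; plate read.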

[2] = target: T2, KDM4C (JMJD2C) (Homo sapiens, UniProt Q9H3R0); assay: Histone lysine demethylase AlphaLISA assay, KDM4C; assay type: biochemical; details: read-out: KDM4C HDME Inhibition IC50
T2 sequence (Q9H3R0 1-349): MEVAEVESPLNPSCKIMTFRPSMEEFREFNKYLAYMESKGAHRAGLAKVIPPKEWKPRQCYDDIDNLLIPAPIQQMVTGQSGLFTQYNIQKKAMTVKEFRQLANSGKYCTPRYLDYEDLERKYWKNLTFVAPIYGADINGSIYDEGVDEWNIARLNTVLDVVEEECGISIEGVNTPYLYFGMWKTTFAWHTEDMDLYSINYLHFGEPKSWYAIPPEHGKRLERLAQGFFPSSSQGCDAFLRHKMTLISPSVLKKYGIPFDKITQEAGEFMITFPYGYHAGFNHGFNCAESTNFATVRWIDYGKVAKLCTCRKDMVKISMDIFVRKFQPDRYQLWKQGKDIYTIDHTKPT
Method in brief: as §1

[3] = tested on: KARPAS620; assay: Cell proliferation assay KARPAS620; assay type: cell-based; details: Homo sapiens, Karpas-620; KARPAS620, Plasma cell leukemia; method of Example 5
Experimental: (§2) MCF7 cells were seeded in multi well plates at a density optimized to give approximately 90% confluent cells at the time of harvest. Cells were incubated for 24 hours before addition of compound. Compounds were diluted in complete medium and added to the plates in duplicates. The final concentration of DMSO was maximum 0.5%. Complete medium used was DMEM with GlutaMAX containing 10% FBS and pen/strep.
(§3) 120 hours after addition of compounds, the plates were harvested and analyzed by ATPlite 1 Step (Perkin Elmer, cat no 6016739) according to the manufactures recommendation.
(§4) The assays were performed by the method of Example 5 by seeding the relevant cell line at a density optimized to give approximately 90% confluent cells at the time of harvest.

[4] = target: T3, KDM2B (FBXL10) (Homo sapiens, UniProt Q8NHM5); assay: Histone lysine demethylase AlphaLISA assay, KDM2B; assay type: biochemical; details: read-out: KDM2B HDME Inhibition IC50
T3 sequence (Q8NHM5 1-650): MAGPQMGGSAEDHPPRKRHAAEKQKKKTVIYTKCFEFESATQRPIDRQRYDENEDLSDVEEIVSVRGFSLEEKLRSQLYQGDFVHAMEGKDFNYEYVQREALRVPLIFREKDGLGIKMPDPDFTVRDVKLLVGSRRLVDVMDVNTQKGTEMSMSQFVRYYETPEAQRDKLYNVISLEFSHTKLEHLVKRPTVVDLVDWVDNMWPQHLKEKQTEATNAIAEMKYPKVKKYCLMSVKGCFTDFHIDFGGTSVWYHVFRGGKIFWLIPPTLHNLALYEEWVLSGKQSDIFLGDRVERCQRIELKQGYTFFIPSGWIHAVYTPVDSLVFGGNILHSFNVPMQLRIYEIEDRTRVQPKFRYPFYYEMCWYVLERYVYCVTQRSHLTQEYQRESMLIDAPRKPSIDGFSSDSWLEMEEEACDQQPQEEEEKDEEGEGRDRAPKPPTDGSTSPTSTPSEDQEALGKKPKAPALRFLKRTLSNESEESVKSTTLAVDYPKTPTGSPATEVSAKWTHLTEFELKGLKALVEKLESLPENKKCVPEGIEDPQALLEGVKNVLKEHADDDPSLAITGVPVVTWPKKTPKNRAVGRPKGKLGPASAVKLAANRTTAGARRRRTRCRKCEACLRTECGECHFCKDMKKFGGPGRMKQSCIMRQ
Method in brief: as §1

[5] = target: KDM6A (UTX) (Homo sapiens, UniProt O15550); assay: Histone lysine demethylase AlphaLISA assay, KDM6A; assay type: biochemical; details: read-out: KDM6A HDME Inhibition IC50
Method in brief: as §1

[6] = tested on: MCF7 cells; assay: Cell proliferation assay MCF7; assay type: cell-based; details: MCF7 human breast cancer cells; 120 hours; ATPlite 1 Step
Method in brief: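 After 120 h of compound exposure (duplicates, DMSO at most 0.5%) in DMEM GlutaMAX with 10% FBS, ATPlite 1 Step luminescence measured cellular ATP. Compound was added 24 h after seeding, at a density chosen for ~90% confluence at the end.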

[7] = tested on: MOLP8; assay: Cell proliferation assay MOLP8; assay type: cell-based; details: Homo sapiens, MOLP-8; MOLP8, Myeloma; method of Example 5
Experimental: as §2, §3, §4

Sequence of KDM6A (UTX) (O15550 919-1401): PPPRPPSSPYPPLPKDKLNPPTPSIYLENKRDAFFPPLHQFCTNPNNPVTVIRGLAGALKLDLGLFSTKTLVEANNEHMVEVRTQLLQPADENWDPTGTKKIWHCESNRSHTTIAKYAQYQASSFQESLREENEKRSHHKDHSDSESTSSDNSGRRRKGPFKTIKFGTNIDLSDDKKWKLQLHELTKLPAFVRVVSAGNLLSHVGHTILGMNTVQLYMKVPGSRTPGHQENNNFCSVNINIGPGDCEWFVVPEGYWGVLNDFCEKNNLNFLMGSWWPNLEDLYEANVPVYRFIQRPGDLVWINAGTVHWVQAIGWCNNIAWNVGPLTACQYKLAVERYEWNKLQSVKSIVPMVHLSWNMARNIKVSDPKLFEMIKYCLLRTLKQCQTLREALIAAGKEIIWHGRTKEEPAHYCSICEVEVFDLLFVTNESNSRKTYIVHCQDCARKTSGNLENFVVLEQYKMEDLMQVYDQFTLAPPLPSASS

IC50 [1]: < 250 nM
IC50 [2]: 250 to 2500 nM
EC50 [3]: < 250 nM
IC50 [4]: > 2500 nM
IC50 [5]: > 2500 nM
EC50 [6]: < 250 nM
Structure (SMILES): CCN(CCN(C)C)C(=O)CNCc1cc(/C=N/CC(CO)C2CCCCC2)ccn1 (stereo not shown) [Compound 81, 2-[({4-[[(2-cyclohexyl-3-hydroxypropyl)-imino]methyl]pyridin-2-yl}methyl)-amino]-N-[2-(dimethylamino)-ethyl]-N-ethylacetamide]
EC50 [7]: < 250 nM
